Test results published in patent publication US9688698B2, “Heteroaromatic compounds and their use as dopamine D1 ligands” (PFIZER INC., priority 2014, dated 2017).
Counter-ions that a name gives are not always drawn.

Target: T1, Human D1 Receptor (Homo sapiens, UniProt P21728)
T1 construct: expressed in transfected cells; host or cells: LTK cell line over-expressing the D1 receptor
Assay: Human D1 Receptor Binding Assay ([3H]-SCH23390 competition binding)
Settings: over-expressing LTK human cell lines; 0.5 nM [3H]-SCH23390; 30 min at 37° C.; footnote a = geometric mean of ≧5 determinations, footnote b = single determination; read-out: Human D1 Receptor Binding, Ki (nM); Geometric mean of 2-4 determinations (unless otherwise indicated)
Method: The affinity of the compounds described herein was determined by competition binding assays similar to those described in Ryman-Rasmussen et al., “Differential activation of adenylate cyclase and receptor internalization by novel dopamine D1 receptor agonists”, Molecular Pharmacology 68(4):1039-1048 (2005).
D1 binding assays were performed using over-expressing LTK human cell lines. […] These ligand and tissue concentrations were used in time course studies to determine linearity and equilibrium conditions for binding. Binding was at equilibrium with the specified amount of tissue in 30 minutes at 37° C. […] The pellet was resuspended in assay buffer [50 mM Tris (pH 7.4@RT) containing 4 mM MgSO4 and 0.5 mM EDTA]. […] Non-specific binding was determined by radioligand binding in the presence of a saturating concentration of (+)-Butaclamol (10 μM), a D1 antagonist. After a 30 minute incubation period at 37° C., assay samples were rapidly filtered through Unifilter-96 GF/B PEI-coated filter plates and rinsed with 50 mM Tris buffer (pH 7.4 at 4° C.). […] The IC50 value (concentration at which 50% inhibition of specific binding occurs) was calculated by linear regression of the concentration-response data in Microsoft Excel. Ki values were calculated according to the Cheng-Prusoff equation: […]

T1 sequence (P21728 whole entry): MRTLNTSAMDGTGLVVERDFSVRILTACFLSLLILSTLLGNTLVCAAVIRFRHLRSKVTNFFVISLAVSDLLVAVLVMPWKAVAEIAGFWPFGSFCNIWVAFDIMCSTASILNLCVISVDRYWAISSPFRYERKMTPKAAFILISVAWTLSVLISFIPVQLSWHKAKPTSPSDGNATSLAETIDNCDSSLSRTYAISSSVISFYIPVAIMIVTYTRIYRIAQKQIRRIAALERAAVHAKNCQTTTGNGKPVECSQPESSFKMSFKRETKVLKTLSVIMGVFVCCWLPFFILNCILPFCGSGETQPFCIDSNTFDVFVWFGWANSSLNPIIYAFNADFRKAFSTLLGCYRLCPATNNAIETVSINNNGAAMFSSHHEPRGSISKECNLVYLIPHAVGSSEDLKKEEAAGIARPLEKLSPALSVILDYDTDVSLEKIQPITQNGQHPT

Compound | Ki [nM]
Cc1cc(Oc2ncnc3ccsc23)c(F)cc1-c1c(C)ncnc1C [Example 18, 4-[4-(4,6-dimethylpyrimidin-5-yl)-2-fluoro-5-methylphenoxy]thieno[3,2-d]pyrimidine] | 34.5
Cc1cc(Oc2nccc3ccsc23)c(F)cc1-c1c(C)ncnc1C [Example 38, 7-[4-(4,6-dimethylpyrimidin-5-yl)-2-fluoro-5-methylphenoxy]thieno[2,3-c]pyridine] | 7.9
Cc1ncnc(C)c1-c1ccc(Oc2ncnc3ccsc23)cc1 [Example 22, 4-[4-(4,6-dimethylpyrimidin-5-yl)phenoxy]thieno[3,2-d]pyrimidine] | 146
Cc1nc2cnccc2n1-c1ccc(Oc2nccc3ccsc23)cc1 [Example 51, 2-methyl-1-[4-(thieno[2,3-c]pyridin-7-yloxy)phenyl]-1H-imidazo[4,5-c]pyridine, trifluoroacetate salt] | 89.5
Cc1ncnc(C)c1-c1ccc(Oc2nccc3ccsc23)c(F)c1C [Example 40, 7-[4-(4,6-dimethylpyrimidin-5-yl)-2-fluoro-3-methylphenoxy]thieno[2,3-c]pyridine] | 40.7
Cc1cnnc(C)c1-c1ccc(Oc2nccc3ncsc23)cc1F [Example 63, 4-[4-(3,5-dimethylpyridazin-4-yl)-3-fluorophenoxy][1,3]thiazolo[5,4-c]pyridine] | 109
Cc1cc(Oc2nccc3ncsc23)ccc1-c1c(C)ncc2nccn12 (single isomer, unassigned; ent-2) [Example 62, 4-[3-methyl-4-(6-methylimidazo[1,2-a]pyrazin-5-yl)phenoxy][1,3]thiazolo[5,4-c]pyridine, ENT-2] | 239
Cc1c(-c2ccc(Oc3ncnc4ccsc34)cc2)n(C)c(=O)[nH]c1=O [Example 68, 1,5-dimethyl-6-[4-(thieno[3,2-d]pyrimidin-4-yloxy)phenyl]pyrimidine-2,4(1H,3H)-dione] | 15.6
Cc1ncnc(C)c1-c1ccc(Oc2nccc3ccsc23)cc1F [Example 50, 7-[4-(4,6-dimethylpyrimidin-5-yl)-3-fluorophenoxy]thieno[2,3-c]pyridine] | 6.7
Cc1cc(Oc2ncnc3ccsc23)ccc1-c1c(C)ncc(=O)n1C [Example 15, 1,5-dimethyl-6-[2-methyl-4-(thieno[3,2-d]pyrimidin-4-yloxy)phenyl]pyrazin-2(1H)-one] | 34.5
Cc1ncnc(C)c1-c1cc(F)c(Oc2nccc3ccsc23)c(F)c1 [Example 37, 7-[4-(4,6-dimethylpyrimidin-5-yl)-2,6-difluorophenoxy]thieno[2,3-c]pyridine] | 79.8
Cc1ncnc(C)c1-c1ccc(Oc2ncnc3ccsc23)cc1Cl [Example 17, 4-[3-chloro-4-(4,6-dimethylpyrimidin-5-yl)phenoxy]thieno[3,2-d]pyrimidine] | 25.4

Next, values leading:

Ki [nM] | Compound
614 | Cc1cc(Oc2nccc3cc[nH]c23)ccc1-c1c(C)ncnc1C#N [Example 55, 6-methyl-5-[2-methyl-4-(1H-pyrrolo[2,3-c]pyridin-7-yloxy)phenyl]pyrimidine-4-carbonitrile]
5.8 | Cc1cc(Oc2nccc3ccsc23)ccc1-c1c(C)ncnc1C [Example 6, 7-[4-(4,6-dimethylpyrimidin-5-yl)-3-methylphenoxy]thieno[2,3-c]pyridine]
15.1 | Cc1cc(Oc2nccc3ccsc23)ccc1-c1c(C)ncnc1C#N (single isomer, unassigned; ent-2) [Example 46, 6-methyl-5-[2-methyl-4-(thieno[2,3-c]pyridin-7-yloxy)phenyl]pyrimidine-4-carbonitrile, ENT-2]
212 | Cc1cc(Oc2nccc3ccoc23)ccc1-c1c(C)ncnc1C#N [Example 52, 5-[4-(furo[2,3-c]pyridin-7-yloxy)-2-methylphenyl]-6-methylpyrimidine-4-carbonitrile]
120 | Cc1cc(Oc2nccc3cn[nH]c23)ccc1-c1c(C)n[nH]c(=O)c1C [Example 25, 4,6-dimethyl-5-[2-methyl-4-(1H-pyrazolo[3,4-c]pyridin-7-yloxy)phenyl]pyridazin-3(2H)-one]
